“And” between values parts separate entries of the source, which are not always exact repeats. Equal values may be shown once. Toxic doses and inconclusive results are not listed.
Tested on: P388 leukemia ip, CD2F1 mice, survival T/C
Assay: NCI In Vivo Anticancer Drug Screen. Data for tumor model P388 Leukemia (intraperitoneal) in CD2F1 (CDF1) mice
Settings: endpoint: median survival time, higher = longer survival
Outline: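 Mice carrying the transplanted tumor received test compound or vehicle. Survival was recorded in each group, and the value is the treated-group measurement divided by that of the vehicle-treated control group.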

[1] = dose: 6.25 mg/kg/injection, schedule: Q01DX005 (ip), vehicle: saline with Tween-80
[2] = dose: 50.0 mg/kg/injection, schedule: Q01DX009 (ip), vehicle: Klucel (hydroxypropylcellulose) (HPC)
[3] = dose: 100.0 mg/kg/injection, schedule: Q01DX009 (ip), vehicle: Klucel (hydroxypropylcellulose) (HPC)
[4] = dose: 200.0 mg/kg/injection, schedule: Q01DX009 (ip), vehicle: Klucel (hydroxypropylcellulose) (HPC)
[5] = dose: 50.0 mg/kg/injection, schedule: Q01DX005 (ip), vehicle: saline with Tween-80
[6] = dose: 100.0 mg/kg/injection, schedule: Q01DX005 (ip), vehicle: saline with Tween-80
[7] = dose: 200.0 mg/kg/injection, schedule: Q01DX005 (ip), vehicle: saline with Tween-80

CS/C(=C/c1ccc2ccccc2[n+]1C)N1CCSCC1
T/C (dose: 1.56 mg/kg/injection, schedule: Q01DX005 (ip), vehicle: saline with Tween-80): 108 % of control | T/C (dose: 3.13 mg/kg/injection, schedule: Q01DX005 (ip), vehicle: saline with Tween-80): 113 % of control | T/C [1]: 113 % of control

CCOC(=O)C12CCCCC1OC(=N)C2 (stereo not drawn)
T/C (dose: 60.0 mg/kg/injection, schedule: Q01DX005 (ip), vehicle: Klucel + Tween-80): 101 % of control | T/C (dose: 120.0 mg/kg/injection, schedule: Q01DX005 (ip), vehicle: Klucel + Tween-80): 98 % of control | T/C (dose: 240.0 mg/kg/injection, schedule: Q01DX005 (ip), vehicle: Klucel + Tween-80): 99 % of control

CC(C)=CCc1c(OC(=O)c2c(C)cc(O)cc2O)cc(CO)c(CO)c1O
T/C (dose: 6.25 mg/kg/injection, schedule: Q01DX009 (ip), vehicle: Klucel (hydroxypropylcellulose) (HPC)): 101 % of control | T/C (dose: 12.5 mg/kg/injection, schedule: Q01DX009 (ip), vehicle: Klucel (hydroxypropylcellulose) (HPC)): 100 % of control and 101 % of control | T/C (dose: 25.0 mg/kg/injection, schedule: Q01DX009 (ip), vehicle: Klucel (hydroxypropylcellulose) (HPC)): 101 % of control and 96 % of control | T/C [2]: 101 % of control and 104 % of control | T/C [3]: 101 % of control and 102 % of control

Cc1ccc(-n2c(O)c(N=Nc3ccc(Br)cc3)c(=O)n(-c3ccc(Br)cc3)c2=S)cc1
T/C (dose: 100.0 mg/kg/injection, schedule: Q04DX002 (ip), vehicle: saline with Tween-80): 96 % of control | T/C (dose: 200.0 mg/kg/injection, schedule: Q04DX002 (ip), vehicle: saline with Tween-80): 99 % of control | T/C (dose: 400.0 mg/kg/injection, schedule: Q04DX002 (ip), vehicle: saline with Tween-80): 94 % of control

Cc1cc(C2(O)CCCc3ccccc32)[n+]([O-])cc1C (stereo not drawn)
T/C (dose: 50.0 mg/kg/injection, schedule: Q01DX005 (ip), vehicle: saline + Tween-80 + alcohol): 106 % of control | T/C (dose: 100.0 mg/kg/injection, schedule: Q01DX005 (ip), vehicle: saline + Tween-80 + alcohol): 104 % of control | T/C (dose: 200.0 mg/kg/injection, schedule: Q01DX005 (ip), vehicle: saline + Tween-80 + alcohol): 107 % of control

CCCCCCC(=O)/C=C/c1ccccc1OCOC
T/C [2]: 100 % of control (2×) and 108 % of control | T/C [3]: 99 % of control and 100 % of control and 106 % of control | T/C [4]: 103 % of control and 111 % of control | T/C (dose: 400.0 mg/kg/injection, schedule: Q01DX009 (ip), vehicle: Klucel (hydroxypropylcellulose) (HPC)): 117 % of control

OCc1c(-c2ccc(Cl)cc2)c(-c2ccccc2)c2n1CCC2
T/C (dose: 50.0 mg/kg/injection, schedule: Q01DX005 (ip), vehicle: Klucel (hydroxypropylcellulose) (HPC)): 94 % of control | T/C (dose: 100.0 mg/kg/injection, schedule: Q01DX005 (ip), vehicle: Klucel (hydroxypropylcellulose) (HPC)): 91 % of control | T/C (dose: 200.0 mg/kg/injection, schedule: Q01DX005 (ip), vehicle: Klucel (hydroxypropylcellulose) (HPC)): 92 % of control

O=C(CCCl)Nc1c(Cl)cccc1Cl
T/C [5]: 96 % of control | T/C [6]: 99 % of control | T/C [7]: 96 % of control

CCOC(=O)c1cnc(N)nc1CCC(=O)O
T/C (dose: 37.5 mg/kg/injection, schedule: Q01DX009 (ip), vehicle: saline with Tween-80): 107 % of control | T/C (dose: 75.0 mg/kg/injection, schedule: Q01DX009 (ip), vehicle: saline with Tween-80): 102 % of control | T/C (dose: 150.0 mg/kg/injection, schedule: Q01DX009 (ip), vehicle: saline with Tween-80): 107 % of control

COc1cc2c(cc1OC)[Se](Br)(Br)c1cc(OC)c(OC)cc1[Se]2
T/C (dose: 60.0 mg/kg/injection, schedule: Q01DX005 (ip), vehicle: saline with Tween-80): 107 % of control | T/C (dose: 120.0 mg/kg/injection, schedule: Q01DX005 (ip), vehicle: saline with Tween-80): 98 % of control | T/C (dose: 240.0 mg/kg/injection, schedule: Q01DX005 (ip), vehicle: saline with Tween-80): 100 % of control

CSc1nc2c3ccccc3ccn2c(=N)c1C#N
T/C (dose: 25.0 mg/kg/injection, schedule: Q04DX002 (ip), vehicle: saline): 104 % of control | T/C (dose: 50.0 mg/kg/injection, schedule: Q04DX002 (ip), vehicle: saline): 109 % of control

CCN(CC)P(=O)(N1CC1)N1CC1
T/C (dose: 6.25 mg/kg/injection, schedule: Q01DX009 (ip), vehicle: saline): 169 % of control | T/C (dose: 12.5 mg/kg/injection, schedule: Q01DX009 (ip), vehicle: saline): 243 % of control | T/C (dose: 12.5 mg/kg/injection, schedule: Q04DX003 (ip), vehicle: saline): 175 % of control | T/C (dose: 25.0 mg/kg/injection, schedule: Q01DX009 (ip), vehicle: saline): 86 % of control | T/C (dose: 25.0 mg/kg/injection, schedule: Q04DX003 (ip), vehicle: saline): 245 % of control

CCOC(=O)C1(O)CC(O)C(O)C(O)C1OC (stereo not drawn)
T/C (dose: 100.0 mg/kg/injection, schedule: Q01DX001 (ip), vehicle: saline with Tween-80): 94 % of control | T/C (dose: 200.0 mg/kg/injection, schedule: Q01DX001 (ip), vehicle: saline with Tween-80): 92 % of control | T/C (dose: 400.0 mg/kg/injection, schedule: Q01DX001 (ip), vehicle: saline with Tween-80): 94 % of control

COc1ccc(/C=N/N2CN(C(C)C(=O)O)C(O)(CCl)N=C2N)cc1OC (stereo not drawn)
T/C (dose: 60.0 mg/kg/injection, schedule: Q01DX005 (ip), vehicle: saline): 108 % of control | T/C (dose: 120.0 mg/kg/injection, schedule: Q01DX005 (ip), vehicle: saline): 114 % of control

CCN(CC)C/C(C)=C(/c1ccccc1)c1ccccc1S(N)(=O)=O
T/C (dose: 100.0 mg/kg/injection, schedule: Q01DX001 (ip), vehicle: Klucel (hydroxypropylcellulose) (HPC)): 116 % of control | T/C (dose: 200.0 mg/kg/injection, schedule: Q01DX001 (ip), vehicle: Klucel (hydroxypropylcellulose) (HPC)): 111 % of control

COc1ccc(C(CCO)c2cc3c(cc2OC)OCO3)cc1 (stereo not drawn)
T/C (dose: 50.0 mg/kg/injection, schedule: Q01DX005 (ip), vehicle: distilled water + Tween-80): 101 % of control | T/C (dose: 100.0 mg/kg/injection, schedule: Q01DX005 (ip), vehicle: distilled water + Tween-80): 101 % of control | T/C (dose: 200.0 mg/kg/injection, schedule: Q01DX005 (ip), vehicle: distilled water + Tween-80): 98 % of control

Cc1[nH]c2c(ccc3ccccc32)c(=O)c1N=Nc1ccc(C(=N)N)cc1
T/C (dose: 50.0 mg/kg/injection, schedule: Q01DX005 (ip), vehicle: Klucel + Tween-80): 124 % of control | T/C (dose: 200.0 mg/kg/injection, schedule: Q01DX005 (ip), vehicle: Klucel + Tween-80): 154 % of control | T/C (dose: 400.0 mg/kg/injection, schedule: Q01DX005 (ip), vehicle: Klucel + Tween-80): 168 % of control

c1ccc(C2=NC3CCCCC3N=C2c2ccccc2)cc1 (stereo not drawn)
T/C (dose: 100.0 mg/kg/injection, schedule: Q01DX009 (ip), vehicle: saline with Tween-80): 100 % of control | T/C (dose: 200.0 mg/kg/injection, schedule: Q01DX009 (ip), vehicle: saline with Tween-80): 100 % of control | T/C (dose: 400.0 mg/kg/injection, schedule: Q01DX009 (ip), vehicle: saline with Tween-80): 100 % of control

O=C1C=CC(O)C2OC12 (stereo not drawn)
T/C (dose: 5.0 mg/kg/injection, schedule: Q04DX002 (ip), vehicle: saline): 111 % of control | T/C (dose: 10.0 mg/kg/injection, schedule: Q04DX002 (ip), vehicle: saline): 113 % of control

CCN(CC)CCNc1cc(OC)c(C)c2cccnc12
T/C (dose: 50.0 mg/kg/injection, schedule: Q01DX005 (ip), vehicle: saline): 104 % of control | T/C (dose: 100.0 mg/kg/injection, schedule: Q01DX005 (ip), vehicle: saline): 109 % of control

Cc1cc(C)nc(N/N=C\c2c(Cl)cccc2Cl)n1
T/C (dose: 50.0 mg/kg/injection, schedule: Q04DX003 (ip), vehicle: Klucel (hydroxypropylcellulose) (HPC)): 100 % of control | T/C (dose: 100.0 mg/kg/injection, schedule: Q04DX003 (ip), vehicle: Klucel (hydroxypropylcellulose) (HPC)): 98 % of control | T/C (dose: 200.0 mg/kg/injection, schedule: Q04DX003 (ip), vehicle: Klucel (hydroxypropylcellulose) (HPC)): 94 % of control

O=C(c1ccc(Cl)c(Cl)c1)N1CCNC1=S
T/C [2]: 104 % of control | T/C [3]: 104 % of control | T/C [4]: 100 % of control

CCCn1cc2c3c(cccc31)[C@H]1C[C@@H](C)CN(C)[C@@H]1C2
T/C (dose: 3.12 mg/kg/injection, schedule: Q01DX005 (ip), vehicle: saline with Tween-80): 102 % of control and 107 % of control | T/C [1]: 100 % of control and 105 % of control and 107 % of control | T/C (dose: 12.5 mg/kg/injection, schedule: Q01DX005 (ip), vehicle: saline with Tween-80): 102 % of control and 92 % of control and 93 % of control | T/C (dose: 25.0 mg/kg/injection, schedule: Q01DX005 (ip), vehicle: saline with Tween-80): 98 % of control and 101 % of control | T/C [5]: 101 % of control | T/C [6]: 104 % of control | T/C [7]: 98 % of control
